# Measured values as given in US7829665B2 (priority 2005, dated 2010).
# Like-named read-outs stand apart in the source and are kept apart here.
# Legend:
# [1] = system: HCV sub-genomic replicon in GS4.3 cells (HuH-7 hepatoma cells); assay: Quantitation by ELISA of Neomycin phosphotransferase II (NPTII) in the HCV sub-genomic replicon, GS4.3; format: cell-based, hepatitis C virus; settings: Hepatitis C virus, Huh-7
# Summary of the method: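 HuH-7 GS4.3 cells carrying HCV sub-genomic replicon 1377/NS3-3′, treated 72 h at 37 °C without G418 with 3-fold dilutions from 10 μM to 56 pM (1% DMSO). NPTII in cell lysates measured by direct ELISA with TMB readout at 450 nm. EC50 from 4-parameter fit of percent DMSO-control signal.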
# [2] = target: T1, full-length NS3/NS4A-2 (HCV NS3 protease) (Hepatitis C virus genotype 1a, UniProt P27958); assay: NS3-NS4 protease assay / NS3 inhibition assay (RETS1 substrate, fluorescence kinetic read); format: biochemical; settings: recombinant E. coli or Baculovirus full-length NS3 with NS4A-2; read-out: NS3-NS4 IC50
# T1 construct: Recombinant E. coli or Baculovirus full-length NS3 was diluted to 3.33 μM with assay buffer; made in house; host or cells: E. coli or baculovirus (BV) expression system
# Summary of the method: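 Full-length NS3 from E. coli (2 nM in assay) or baculovirus (3 nM) was precomplexed with excess NS4A-2 peptide, then preincubated 10 min at room temperature with serially diluted compounds starting at 50 microM. Reaction was started with RETS1 substrate at 8 μM before addition and read kinetically for 30 min (ex 335/em 495 nm). Four-parameter IC50s were converted to Ki by Cheng-Prusoff using Km 2.03 μM (E. coli) or 1.74 μM (BV).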
# [3] = GS4.3 cells, 72 h incubation, NPTII ELISA, read-out: Replicon EC50
# T1 sequence (P27958 1027-1657): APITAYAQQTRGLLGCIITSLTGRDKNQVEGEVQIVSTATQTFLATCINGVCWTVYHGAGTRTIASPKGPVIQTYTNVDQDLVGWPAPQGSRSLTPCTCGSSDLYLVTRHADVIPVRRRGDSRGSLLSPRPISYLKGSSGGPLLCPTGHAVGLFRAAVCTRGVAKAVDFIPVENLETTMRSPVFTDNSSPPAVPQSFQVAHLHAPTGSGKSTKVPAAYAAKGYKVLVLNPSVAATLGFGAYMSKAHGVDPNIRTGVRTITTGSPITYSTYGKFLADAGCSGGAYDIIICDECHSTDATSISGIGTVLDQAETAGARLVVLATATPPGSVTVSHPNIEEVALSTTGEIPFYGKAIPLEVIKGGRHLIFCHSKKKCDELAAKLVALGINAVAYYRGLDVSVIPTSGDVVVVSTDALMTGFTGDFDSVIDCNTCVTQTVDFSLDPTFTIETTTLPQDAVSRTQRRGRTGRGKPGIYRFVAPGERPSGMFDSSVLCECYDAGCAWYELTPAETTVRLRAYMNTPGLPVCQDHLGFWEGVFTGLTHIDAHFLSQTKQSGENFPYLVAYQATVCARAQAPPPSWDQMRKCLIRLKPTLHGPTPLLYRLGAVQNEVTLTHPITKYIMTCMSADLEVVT
SMILES,"EC50 [1, 3]",IC50 [2],"EC50 ([1]; Table 26, read-out: EC50)"
O=C1N[C@]2(C(=O)NS(=O)(=O)C3CC3)C[C@H]2/C=C\CCCCC[C@H](Nc2c(NCC(F)(F)F)c(=O)c2=O)C(=O)N2C[C@H](OC(=O)N3Cc4cccc(F)c4C3)C[C@@H]12 [Compound 196],< 10000 nM,< 100 nM,–
Cc1cc(CN[C@H]2CCCCC/C=C\[C@@H]3C[C@@]3(C(=O)NS(=O)(=O)C3CC3)NC(=O)[C@@H]3C[C@@H](OC(=O)N4Cc5cccc(F)c5C4)CN3C2=O)oc1C [Compound 915],< 100 nM,< 100 nM,–
CC(C)(C)OC(=O)N[C@H]1CCC(O)CC/C=C\[C@@H]2C[C@@]2(C(=O)O)NC(=O)[C@@H]2C[C@@H](OC(=O)N3Cc4cccc(F)c4C3)CN2C1=O (stereo partly shown) [Compound 1017],> 10000 nM,< 1000 nM,–
COC(=O)c1cccc(CNC(=O)[C@@]23C[C@H]2/C=C\CCCCC[C@H](NC(=O)OC(C)(C)C)C(=O)N2C[C@H](OC(=O)N4Cc5cccc(F)c5C4)C[C@H]2C(=O)N3)c1 [Compound 602],< 1000 nM,< 1000 nM,–
O=C1N[C@]2(C(=O)NS(=O)(=O)C3CC3)C[C@H]2/C=C\CCCCC[C@H](Nc2c(N3CCCC3)c(=O)c2=O)C(=O)N2C[C@H](OC(=O)N3Cc4cccc(F)c4C3)C[C@@H]12 [Compound 197],< 10000 nM,< 100 nM,–
CC(C)(C)OC(=O)N[C@H]1CCCCC/C=C\[C@@H]2C[C@@]2(C(=O)NS(=O)(=O)C2CC2)NC(=O)[C@@H]2C[C@@H](OC(=O)N3CCc4c(F)ccc(F)c4C3)CN2C1=O [Compound 258],< 100 nM,< 100 nM,–
O=C1N[C@]2(C(=O)NS(=O)(=O)C3CC3)C[C@H]2/C=C\CCCCC[C@H](NCC2CC2)C(=O)N2C[C@H](OC(=O)N3Cc4cccc(F)c4C3)C[C@@H]12 [Compound 910],< 1000 nM,< 100 nM,–
O=C1N[C@]2(C(=O)O)C[C@H]2/C=C\CCCCC[C@H](Nc2c(N3CCC3)c(=O)c2=O)C(=O)N2C[C@H](OC(=O)N3Cc4cccc(F)c4C3)C[C@@H]12 [Compound 238],< 10000 nM,< 100 nM,–
CCCNC(=O)[C@@]12C[C@H]1/C=C\CCCCC[C@H](NCc1ccc(F)c(F)c1)C(=O)N1C[C@H](OC(=O)N3Cc4cccc(F)c4C3)C[C@H]1C(=O)N2 [Compound 625],< 10000 nM,< 10000 nM,–
CC(C)(C)NC(=S)N[C@H]1CCCCC/C=C\[C@@H]2C[C@@]2(C(=O)NS(=O)(=O)C2CC2)NC(=O)[C@@H]2C[C@@H](OC(=O)N3Cc4cccc(F)c4C3)CN2C1=O [Compound 239],< 100 nM,< 100 nM,–
O=C(Cc1ccccc1)N[C@H]1CCCCC/C=C\[C@@H]2C[C@@]2(C(=O)NS(=O)(=O)C2CC2)NC(=O)C2CCCN2C1=O (stereo partly shown) [Compound 2144],–,> 10000 nM,< 1000 nM
O=C1N[C@]2(C(=O)NS(=O)(=O)C3CC3)C[C@H]2/C=C\CCCCC[C@H](NC2CCCC2)C(=O)N2C[C@H](OC(=O)N3Cc4cccc(F)c4C3)C[C@@H]12 [Compound 919],< 10000 nM,< 100 nM,–
CCOC1(S(=O)(=O)NC(=O)[C@@]23C[C@H]2/C=C\CCCCC[C@H](NC(=O)OC(C)(C)C)C(=O)N2C[C@H](OC(=O)N4Cc5cccc(Cl)c5C4)C[C@H]2C(=O)N3)CC1 [Compound 165],< 100 nM,< 100 nM,–
O=C(N[C@H]1CCCCC/C=C\[C@@H]2C[C@@]2(C(=O)NS(=O)(=O)N2CCC2)NC(=O)[C@@H]2C[C@@H](OC(=O)N3CCc4ccccc4C3)CN2C1=O)OC1CCCC1 [Compound 233],< 100 nM,< 100 nM,–
O=C(N[C@H]1CCCCC/C=C\[C@@H]2C[C@@]2(C(=O)O)NC(=O)[C@@H]2C[C@@H](OC(=O)N3Cc4ccccc4C3)CN2C1=O)C1CC1 [Compound 123],< 10000 nM,< 100 nM,–
O=C(N[C@H]1CCCCC/C=C\[C@@H]2C[C@@]2(C(=O)NS(=O)(=O)NCC(F)(F)F)NC(=O)[C@@H]2C[C@@H](OC(=O)N3Cc4cccc(F)c4C3)CN2C1=O)OC1CCCC1 [Compound 223],< 1000 nM,< 100 nM,–
"CC(C)(C)OC(=O)N[C@H]1CCCCC/C=C\[C@@H]2C[C@@]2(C(=O)NS(=O)(=O)C2CC2)NC(=O)C2Cc3cc(Oc4cccc(C(F)(F)F)c4)ccc3CN2C1=O (stereo partly drawn) [Compound 2008, tert-Butyl (1aS,9S,19aR,Z)-19a-(cyclopropylsulfonylcarbamoyl)-10,18-dioxo-15-(3-(trifluoromethyl)phenoxy)-1a,4,5,6,7,8,9,10,12,17,17a,18,19,19a-tetradecahydro-1H-1,14-diaza-bicyclo[13.1.0]hexadeca-1(15), 2-dieno[11,12-b]isoquinolin-9-ylcarbamate]",< 10000 nM,< 1000 nM,–
O=C(N[C@H]1CCCCC/C=C\[C@@H]2C[C@@]2(C(=O)NS(=O)(=O)N2CCC2)NC(=O)[C@@H]2C[C@@H](OC(=O)N3Cc4cccc(F)c4C3)CN2C1=O)OC1CCCC1 [Compound 217],< 100 nM,< 100 nM,–

SMILES,"EC50 [1, 3]",IC50 [2],"EC50 ([1]; Table 26, read-out: EC50)"
CNC(=O)[C@@H](NC(=O)[C@@]12C[C@H]1/C=C\CCCCC[C@H](NC(=O)OC(C)(C)C)C(=O)N1C[C@H](OC(=O)N3Cc4cccc(F)c4C3)C[C@H]1C(=O)N2)c1ccc(F)cc1 [Compound 631],< 1000 nM,< 100 nM,–
O=C(N[C@H]1CCCCC/C=C\[C@@H]2C[C@@]2(C(=O)NS(=O)(=O)N2CC(F)(F)C2)NC(=O)C2C[C@@H](OC(=O)N3Cc4ccccc4C3)CN2C1=O)OC1CCCC1 (stereo partly shown) [Compound 230],< 1000 nM,< 100 nM,–
O=C(N[C@H]1CCCCC/C=C\[C@@H]2C[C@@]2(C(=O)O)NC(=O)[C@@H]2C[C@@H](OC(=O)N3Cc4ccncc4C3)CN2C1=O)OC1CCCC1 [Compound 146],> 10000 nM,< 100 nM,–
CC(C)(C)OC(=O)N[C@H]1CCCCC/C=C\[C@@H]2C[C@@]2(C(=O)NC2CC2)NC(=O)[C@@H]2C[C@@H](OC(=O)N3Cc4cccc(F)c4C3)CN2C1=O [Compound 609],< 1000 nM,< 100 nM,–
CC(C)(C)OC(=O)N[C@H]1CCCCC/C=C\[C@@H]2C[C@@]2(C(=O)NCC#N)NC(=O)[C@@H]2C[C@@H](OC(=O)N3Cc4cccc(F)c4C3)CN2C1=O [Compound 615],< 10000 nM,< 1000 nM,–
CC(C)(C)OC(=O)N[C@H]1CCCCC/C=C\[C@@H]2C[C@@]2(C(=O)NS(=O)(=O)N2CCOCC2)NC(=O)[C@@H]2C[C@@H](OC(=O)N3Cc4cccc(F)c4C3)CN2C1=O [Compound 209],< 100 nM,< 100 nM,–
CC(C)(C)OC(=O)N[C@H]1CCCCC/C=C\[C@@H]2C[C@@]2(C(=O)NS(=O)(=O)N2CCCC2)NC(=O)[C@@H]2C[C@@H](OC(=O)N3Cc4cccc(Cl)c4C3)CN2C1=O [Compound 214],< 100 nM,< 100 nM,–
CC(C)(C)OC(=O)N[C@H]1CCCCC/C=C\[C@@H]2C[C@@]2(C(=O)NS(=O)(=O)C2CC2)NC(=O)[C@@H]2C[C@@H](OC(=O)N3Cc4c(Cl)ccc(Cl)c4C3)CN2C1=O [Compound 145],< 100 nM,< 100 nM,–
CN(C)[C@H]1CCCCC/C=C\[C@@H]2C[C@@]2(C(=O)NS(=O)(=O)C2CC2)NC(=O)[C@@H]2C[C@@H](OC(=O)N3Cc4cccc(F)c4C3)CN2C1=O [Compound 908],< 10000 nM,< 1000 nM,–
CC(C)(C)CN[C@H]1CCCCC/C=C\[C@@H]2C[C@@]2(C(=O)NS(=O)(=O)C2CC2)NC(=O)[C@@H]2C[C@@H](OC(=O)N3Cc4cccc(F)c4C3)CN2C1=O [Compound 920],< 100 nM,< 100 nM,–
O=C1N[C@]2(C(=O)NS(=O)(=O)C3CC3)C[C@H]2/C=C\CCCCC[C@H](Nc2c(N3CCC3)c(=O)c2=O)C(=O)N2C[C@H](OC(=O)N3Cc4cccc(F)c4C3)C[C@@H]12 [Compound 193],< 1000 nM,< 100 nM,–
CN(C)C(=O)NC(=O)[C@@]12C[C@H]1/C=C\CCCCC[C@H](NC(=O)OC(C)(C)C)C(=O)N1C[C@H](OC(=O)N3Cc4cccc(F)c4C3)C[C@H]1C(=O)N2 [Compound 235],< 100 nM,< 100 nM,–
CC(C)(C)OC(=O)N[C@H]1CCCCC/C=C\[C@@H]2C[C@@]2(C(N)=O)NC(=O)[C@@H]2C[C@@H](OC(=O)N3Cc4cccc(F)c4C3)CN2C1=O [Compound 648],> 10000 nM,< 1000 nM,–
CC(C)(C)OC(=O)N[C@H]1CCCCC/C=C\[C@@H]2C[C@@]2(C(=O)Nc2n[nH]c(C3CC3)n2)NC(=O)[C@@H]2C[C@@H](OC(=O)N3Cc4cccc(F)c4C3)CN2C1=O [Compound 635],< 1000 nM,< 100 nM,–
CCN(C)S(=O)(=O)NC(=O)[C@@]12C[C@H]1/C=C\CCCCC[C@H](NC(=O)OC(C)(C)C)C(=O)N1C[C@H](OC(=O)N3Cc4ccccc4C3)C[C@H]1C(=O)N2 [Compound 200],< 100 nM,< 100 nM,–
"COc1ccc(CC(=O)N[C@H]2CCCCC/C=C\[C@@H]3C[C@@]3(C(=O)NS(=O)(=O)C3CC3)NC(=O)[C@@H]3CCCN3C2=O)cc1 [Compound 2138, (1S,4R,6S,14S)N—((Z)-4-Cyclopropanesulfonylaminocarbonyl-2,15-dioxo-3,16-diaza-tricyclo[14.3.0.0^4,6]nonadec-7-ene-14-yl)-2-(4-methoxy-phenyl)-acetamide]",–,> 10000 nM,< 1000 nM
O=C(N[C@H]1CCCCC/C=C\[C@@H]2C[C@@]2(C(=O)NS(=O)(=O)N(CC(F)(F)F)CC(F)(F)F)NC(=O)[C@@H]2C[C@@H](OC(=O)N3Cc4cccc(F)c4C3)CN2C1=O)OC1CCCC1 [Compound 224],< 10000 nM,< 1000 nM,–
